In patent US20060110341A1, “Cosmetic compositions containing Sophora alopecuroides L. extracts” (Unilever Home & Personal Care USA, Division Of Conopco, Inc., priority 2004, published 2006):

Biological target: mushroom tyrosinase (Sigma)
Test: Tyrosinase inhibition assay
Assay type: biochemical
Conditions: for IC50: 0.5 mM tyrosine, pH 7.00, tyrosinase 60.5 U/mL, read-out: IC50 tyrosinase inhibition activity: components
Experimental: Determination of melanin content within each MelanoDerm was performed by absorbance measurement at 475 nm. IC50 was determined by Tyrosinase inhibition assay. […] The reaction rate in the first 6.5 min is calculated based on the absorbance change at 475 nm.

Row | Compound | IC50 | tyrosinase inhibition activity (in words) | IC50 tyrosinase inhibition activity, in brackets by weight (same value as the μM figure)
1 | C=C(C)[C@H](CC=C(C)C)Cc1c(O)cc(O)c2c1O[C@H](c1ccc(O)cc1O)CC2=O [Sophoraflavone G] | 14 µM | – | –
2 | C=C(C)C(CC=C(C)C)Cc1c2c(c(O)c3c1OC(c1ccc(O)cc1)C3c1cc(O)cc(O)c1)C(=O)CC(c1ccc(O)cc1O)O2 (stereo not drawn) [Alopecurone B] | 5 µM | showing tyrosinase inhibition activity | –
3 | Sophoraflavone I | 15 µM | – | –
4 | C=C(C)C(CC=C(C)C)Cc1c2c(c(O)c3c1OC(c1ccc(O)cc1)C3c1cc(O)cc(O)c1)C(=O)CC(c1ccc(O)cc1O)O2 (stereo not drawn) [Alopecurone A] | 9 µM | showing tyrosinase inhibition activity | –
5 | Sophoraflavone K | 1 µM | – | –
6 | Oc1ccc(O)cc1 [Hydroquinone, reference compound] | 36.4 µM | – | (4 micro-q/ml) micro-g/ml
